11 compounds from patent US12145947B2, “Pyrimidine based modulators and uses thereof” (Quanta Therapeutics, Inc., priority 2022, dated 2024) can be followed below.

For one assay, the target named is T1, KRAS G12D/RAF1 (Homo sapiens, UniProt P01116, G12D).
T1 construct: His6-MBP (N, cleaved yes); made in house; host or cells: E. coli
Nature of the assay: Protein-protein interaction (PPI) HTRF assay KRAS G12D/RAF1. It counts as binding. The conditions noted are these: Table 4. The essentials: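 HTRF pairing of His-tagged RAF1 (52-131) plus Tb-cryptate donor with GppNHp-exchanged biotin-RAS (KRAS 1-169 wt/G12D/G12V, NRAS wt) plus streptavidin-d2 acceptor; compound sits 30 min with RAS first, then 1 h RT with RAF1. IC50 derived from 665/615 ratio, untagged RAF1 defining full inhibition.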
In general terms: In TR-FRET formats the signal depends on donor and acceptor labels being close together.

The target in assay [1] is T2, GST-tagged KRAS-G12D (2-169) (Homo sapiens, UniProt P01116, G12D).
T2 construct: GST-tagged KRAS-G12D (2-169, Reaction Biology, MSC-11-539); purchased Reaction Biology MSC-11-539 (KRAS G12D); MSC-11-502 (SOS1cat)
T2 sequence (P01116 2-169 isoform P01116-2 G12D): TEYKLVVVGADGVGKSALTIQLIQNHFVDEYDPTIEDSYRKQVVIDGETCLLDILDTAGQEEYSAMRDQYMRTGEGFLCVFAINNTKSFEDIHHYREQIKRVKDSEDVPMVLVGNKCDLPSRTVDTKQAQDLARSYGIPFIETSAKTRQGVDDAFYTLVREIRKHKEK
Nature of the assay: Nucleotide exchange assay (NEA), SOS-mediated, HTRF, KRAS G12D. In kind it is biochemical. The note with it: Table 4; IC50 extracted at 30 min. The essentials: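 IC50 values come from 4-parameter fits at the 30 min time point of an SOS-driven exchange read by HTRF, normalised to DMSO (0%) and SOS-free blank (100%). Final reaction: 5 nM GST-KRAS-G12D (2-169), 20 nM SOScat, 150 nM fluorescent GTP-DY-647P1, after 1 h RT compound preincubation with KRAS and Tb-cryptate anti-GST.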

pIC50: −log10 of the molar value.

T1 sequence (P01116 with tags, fused parts or gaps isoform P01116-2 G12D): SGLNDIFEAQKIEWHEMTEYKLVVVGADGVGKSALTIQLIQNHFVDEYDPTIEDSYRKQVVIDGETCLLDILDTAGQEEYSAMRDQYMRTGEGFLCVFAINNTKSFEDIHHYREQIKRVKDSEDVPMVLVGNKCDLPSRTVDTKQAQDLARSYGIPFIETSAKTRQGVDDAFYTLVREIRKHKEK

A word on the pIC50: it is the IC50 on a negative log10 scale, so that one unit is a factor of ten. As to `C[C@@H]1COCCN1CC1(COc2nc(N3C[C@H]4CC[C@@H](C3)N4)c(C#N)c(N3CC4(CCc5sc(N)c(C#N)c54)C3)n2)CC1` [Compound 82, 2-amino-1′-[5-cyano-6-[(1R,5S)-3,8-diazabicyclo[3.2.1]octan-3-yl]-2-[[1-[[(3R)-3-methylmorpholin-4-yl]methyl]cyclopropyl]methoxy]pyrimidin-4-yl]spiro[5,6-dihydrocyclopenta[b]thiophene-4,3′-azetidine]-3-carbonitrile], the pIC50 against KRAS G12D/RAF1 was 4.00 to 5.00; in assay [1] it was 6.00 to 7.00.

Take `CN1CCC[C@H]1COc1nc(N2C[C@H]3CC[C@@H](C2)N3)c(C#N)c(N2CC3(CCc4sc(N)c(C#N)c43)C2)n1` [Compound 83, 2-amino-1′-[5-cyano-6-[(1R,5S)-3,8-diazabicyclo[3.2.1]octan-3-yl]-2-[[(2S)-1-methylpyrrolidin-2-yl]methoxy]pyrimidin-4-yl]spiro[5,6-dihydrocyclopenta[b]thiophene-4,3′-azetidine]-3-carbonitrile]: the values for the pIC50 (at KRAS G12D/RAF1; in assay [1]) were 6.00 to 7.00 and over 8.00, respectively.

`N#Cc1c(N2C[C@H]3CC[C@@H](C2)N3)nc(OCC2(c3ccccc3)CC2)nc1N1CC2(CCc3sc(N)c(C#N)c32)C1` [Compound 84, 2-amino-1′-[5-cyano-6-[(1R,5S)-3,8-diazabicyclo[3.2.1]octan-3-yl]-2-[(1-phenylcyclopropyl)methoxy]pyrimidin-4-yl]spiro[5,6-dihydrocyclopenta[b]thiophene-4,3′-azetidine]-3-carbonitrile]: the results for the negative logarithm of the IC50 (pIC50) (against KRAS G12D/RAF1; in assay [1]) were 6.00 to 7.00 and over 8.00, respectively.

On to `N#Cc1c(N2C[C@H]3CC[C@@H](C2)N3)nc(OCc2[nH]ncc2F)nc1N1CC2(CCc3sc(N)c(C#N)c32)C1` [Compound 90, 2-amino-1′-[5-cyano-6-[(1R,5S)-3,8-diazabicyclo[3.2.1]octan-3-yl]-2-[(4-fluoro-1H-pyrazol-5-yl)methoxy]pyrimidin-4-yl]spiro[5,6-dihydrocyclopenta[b]thiophene-4,3′-azetidine]-3-carbonitrile], for which the pIC50 on KRAS G12D/RAF1 is 4.00 to 5.00; in assay [1] it was 7.00 to 8.00.

`N#Cc1c(N2C[C@H]3CC[C@@H](C2)N3)nc(OCC2(CN3CCS(=O)(=O)CC3)CC2)nc1N1CC2(CCc3sc(N)c(C#N)c32)C1` [Compound 95, 2-amino-1′-[5-cyano-6-[(1R,5S)-3,8-diazabicyclo[3.2.1]octan-3-yl]-2-[[1-[(1,1-dioxo-1,4-thiazinan-4-yl)methyl]cyclopropyl]methoxy]pyrimidin-4-yl]spiro[5,6-dihydrocyclopenta[b]thiophene-4,3′-azetidine]-3-carbonitrile]: the pIC50 was 5.00 to 6.00 at KRAS G12D/RAF1 and over 8.00 in assay [1].

Regarding `N#Cc1c(N2C[C@H]3CC[C@@H](C2)N3)nc(OCc2n[nH]cc2Br)nc1N1CC2(CCc3sc(N)c(C#N)c32)C1` [Compound 102, 2-amino-1′-[2-[(4-bromo-1H-pyrazol-3-yl)methoxy]-5-cyano-6-[(1S,5R)-3,8-diazabicyclo[3.2.1]octan-3-yl]pyrimidin-4-yl]spiro[5,6-dihydrocyclopenta[b]thiophene-4,3′-azetidine]-3-carbonitrile], the negative logarithm of the IC50 (pIC50) is 4.00 to 5.00 against KRAS G12D/RAF1 and over 8.00 in assay [1].

Regarding `N#Cc1c(N2C[C@H]3CC[C@@H](C2)N3)nc(OCc2cn[nH]n2)nc1N1CC2(CCc3sc(N)c(C#N)c32)C1` [Compound 103, 2-amino-1′-[5-cyano-6-[(1R,5S)-3,8-diazabicyclo[3.2.1]octan-3-yl]-2-(2H-triazol-4-ylmethoxy)pyrimidin-4-yl]spiro[5,6-dihydrocyclopenta[b]thiophene-4,3′-azetidine]-3-carbonitrile], the results for the pIC50 (at KRAS G12D/RAF1; in assay [1]) were 4.00 to 5.00 and 7.00 to 8.00, respectively.

On to `N#Cc1c(N2C[C@H]3CC[C@@H](C2)N3)nc(OCc2n[nH]cc2Cl)nc1N1CC2(CCc3sc(N)c(C#N)c32)C1` [Compound 104, 2-amino-1′-[2-[(4-chloro-1H-pyrazol-3-yl)methoxy]-5-cyano-6-[(1R,5S)-3,8-diazabicyclo[3.2.1]octan-3-yl]pyrimidin-4-yl]spiro[5,6-dihydrocyclopenta[b]thiophene-4,3′-azetidine]-3-carbonitrile], for which the results for the pIC50 (against KRAS G12D/RAF1; in assay [1]) were 4.00 to 5.00 and over 8.00, respectively.

For `N#Cc1c(N2C[C@H]3CC[C@@H](C2)N3)nc(OCc2cc(Cl)[nH]n2)nc1N1CC2(CCc3sc(N)c(C#N)c32)C1` [Compound 105, 2-amino-1′-[2-[(5-chloro-1H-pyrazol-3-yl)methoxy]-5-cyano-6-[(1R,5S)-3,8-diazabicyclo[3.2.1]octan-3-yl]pyrimidin-4-yl]spiro[5,6-dihydrocyclopenta[b]thiophene-4,3′-azetidine]-3-carbonitrile], the pIC50 at KRAS G12D/RAF1 was 4.00 to 5.00; in assay [1], over 8.00.

Turning to `N#Cc1c(N2C[C@H]3CC[C@@H](C2)N3)nc(OCc2n[nH]cc2C(F)(F)F)nc1N1CC2(CCc3sc(N)c(C#N)c32)C1` [Compound 106, 2-amino-1′-[5-cyano-6-[(1R,5S)-3,8-diazabicyclo[3.2.1]octan-3-yl]-2-[[4-(trifluoromethyl)-1H-pyrazol-3-yl]methoxy]pyrimidin-4-yl]spiro[5,6-dihydrocyclopenta[b]thiophene-4,3′-azetidine]-3-carbonitrile], the pIC50 is 4.00 to 5.00 against KRAS G12D/RAF1 and 7.00 to 8.00 in assay [1].

Regarding `Cc1nc(COc2nc(N3C[C@H]4CC[C@@H](C3)N4)c(C#N)c(N3CC4(CCc5sc(N)c(C#N)c54)C3)n2)n[nH]1` [Compound 107, 2-amino-1′-[5-cyano-6-[(1R,5S)-3,8-diazabicyclo[3.2.1]octan-3-yl]-2-[(5-methyl-1H-1,2,4-triazol-3-yl)methoxy]pyrimidin-4-yl]spiro[5,6-dihydrocyclopenta[b]thiophene-4,3′-azetidine]-3-carbonitrile], the pIC50 was 4.00 to 5.00 on KRAS G12D/RAF1 and 7.00 to 8.00 in assay [1].
